According to patent publication US7514434B2, “Heterocyclic compounds having an oxadiazole moiety and hydro isomers thereof” (Rigel Pharmaceuticals, Inc., priority 2004, dated 2009):

test system: HCV replicon (5-2 Luc replicon-comprising cells); assay: HCV replicon assay (luciferase); assay type: cell-based; details: 5-2 Luc replicon cells, 24 hours with compound; read-out: Replicon IC50 (50% reduction in luciferase activity)
Excerpt: In one embodiment, the inhibitory activity of the compounds can be confirmed in a replicon assay that assesses the ability of a test compound to block or inhibit HCV replication in replicon cells. One example of a suitable replicon assay is the liver cell-line Huh 7-based replicon assay described in Lohmann et al., 1999, Science 285:110-113. A specific example of this replicon assay which utilizes luciferase translation is provided in the Examples Section. In one embodiment of this assay, the amount of test compound that yields a 50% reduction in translation as compared to a control cell (IC50) may be determined.
The inhibitory activity of certain exemplary compounds of the invention was confirmed using an HCV replicon assay. The HCV replicon can include such features as the HCV 5′ untranslated region including the HCV IRES, the HCV 3′ untranslated region, selected HCV genes encoding HCV polypeptides, selectable markers, and a reporter gene such as luciferase, GFP, etc. In the assay, actively dividing 5-2 Luc replicon-comprising cells (obtained from Ralf Bartenschlager; see Lohmann et al., 1999, Science 285:110-113) were seeded ata density of between about 5,000 and 7,500 cells/well onto 96 well plates (about 90 μl of cells per well) and incubated at 37° C. and 5% CO2 for 24 hours. Then, the test compound (in a volume of about 10 μl) was added to the wells at various concentrations and the cells were incubated for an additional 24 hours before luciferase assay. Briefly, the Bright-Glo reagent was diluted 1:1 with PBS and 100 μl of diluted reagent was added to each well. After 5 min of incubation at room temperature, luciferin emission was quantified with a luminometer. In this assay, the amount of test compound that yielded a 50% reduction in luciferase activity (IC50) was determined.

Structure (SMILES) | IC50
CC(=O)N1CCN(c2cccc(Cl)c2-c2cc(-c3ccc(-c4noc(C(Cl)Cl)n4)c(Cl)c3)on2)CC1 [5-Dichloromethyl-3-[4-[3′-[2′-chloro-6′-(N-acetyl-4-piperazinyl)phenyl]-5′-isoxazolyl]-2-chlorophenyl]-1,2,4-oxadiazole] | > 10 µM
CC(=O)N1CCN(c2cccc(Cl)c2-c2cc(-c3ccc(-c4noc(C(Cl)Cl)n4)c(F)c3)on2)CC1 [5-Dichloromethyl-3-[4-[3′-[2′-chloro-6′-(N-acetyl-4-piperazinyl)phenyl]-5′-isoxazolyl]-2-fluorophenyl]-1,2,4-oxadiazole] | ≤ 10 µM
COc1cccc(C(F)(F)F)c1-c1cc(-c2cccc(-c3noc(C(Cl)Cl)n3)c2)on1 [(I) R2=CF3, R6=OMe, 5-Dichloromethyl-3-[3-[3′-(2′-methoxy-6′-trifluoromethylphenyl)-5′-isoxazolyl]phenyl]-1,2,4-oxadiazole] | > 10 µM
Clc1cccc(Cl)c1-c1cc(-c2cccc(-c3noc(C(Cl)Cl)n3)c2)on1 [(I) R2=Cl, R6=Cl, 5-Dichloromethyl-3-[3-[3′-(2′,6′-dichlorophenyl)-5′-isoxazolyl]phenyl]-1,2,4-oxadiazole] | ≤ 10 µM
Fc1cc(-c2cc(-c3c(Cl)cccc3Cl)no2)ccc1-c1noc(C(Cl)Cl)n1 [(I) R2=Cl, R6=Cl, R8=F, 5-Dichloromethyl-3-[4-[3′-(2′,6′-dichlorophenyl)-5′-isoxazolyl]-6-fluorophenyl]-1,2,4-oxadiazole] | ≤ 10 µM
Clc1cccc(Cl)c1-c1cc(-c2ccccc2-c2noc(C(Cl)Cl)n2)on1 [(II) R2=Cl, R6=Cl, 5-Dichloromethyl-3-[2-[3′-(2′,6′-dichlorophenyl)-5′-isoxazolyl]phenyl]-1,2,4-oxadiazole] | ≤ 10 µM
Fc1cccc(C(F)(F)F)c1-c1cc(-c2ccc(-c3noc(C(Cl)Cl)n3)cc2)on1 [(III) R2=CF3, R6=F, 5-Dichloromethyl-3-[4-[3′-(2′-fluoro-6′-trifluoromethylphenyl)-5′-isoxazolyl]phenyl]-1,2,4-oxadiazole] | ≤ 10 µM
COc1cccc(C(F)(F)F)c1-c1cc(-c2ccc(-c3noc(C(Cl)Cl)n3)cc2)on1 [(III) R2=CF3, R6=OMe, 5-Dichloromethyl-3-[4-[3′-(2′-methoxy-6′-trifluoromethylphenyl)-5′-isoxazolyl]phenyl]-1,2,4-oxadiazole] | ≤ 10 µM
Clc1cccc(Cl)c1-c1cc(-c2ccc(-c3noc(C(Cl)Cl)n3)cc2)on1 [(III) R2=Cl, R6=Cl, 5-Dichloromethyl-3-[4-[3′-(2′,6′-dichlorophenyl)-5′-isoxazolyl]phenyl]-1,2,4-oxadiazole] | ≤ 10 µM
Clc1cc(-c2cc(-c3c(Cl)cccc3Cl)no2)ccc1-c1noc(C(Cl)Cl)n1 [(III) R2=Cl, R6=Cl, R8=Cl, 5-Dichloromethyl-3-[4-[3′-(2′,6′-dichlorophenyl)-5′-isoxazolyl]-2-chlorophenyl]-1,2,4-oxadiazole] | > 10 µM
Cc1cc(-c2noc(C(Cl)Cl)n2)ccc1-c1cc(-c2c(Cl)cccc2Cl)no1 [(III) R2=Cl, R6=Cl, R10=Me, 5-Dichloromethyl-3-[4-[3′-(2′,6′-dichlorophenyl)-5′-isoxazolyl]-3-methylphenyl]-1,2,4-oxadiazole] | ≤ 10 µM
Fc1cccc(Cl)c1-c1cc(-c2ccc(-c3noc(C(Cl)Cl)n3)cc2)on1 [(III) R2=Cl, R6=F, 5-Dichloromethyl-3-[4-[3′-(2′-chloro-6′-fluorophenyl)-5′-isoxazolyl]phenyl]-1,2,4-oxadiazole] | ≤ 10 µM
Clc1cccc(Cl)c1-c1cc(-c2ccnc(-c3noc(C(Cl)Cl)n3)c2)on1 [(Ia) R2=Cl, R6=Cl, 5-Dichloromethyl-3-[4-[3′-(2′,6′-dichlorophenyl)-5′-isoxazolyl]-4-pyridyl]-1,2,4-oxadiazole] | > 10 µM

test system: HCV nonstructural protein NS5A or NS3; assay: Quantitative Western blot assay in 9-13 replicon cells; assay type: cell-based; details: second symbol of column Replicon/Western, 48 hours with compound, read-out: Western IC50 (50% reduction in the amount of NS5A or NS3 protein)
Experimental: Alternatively, the inhibitory activity of the compounds can be confirmed using a quantitative Western immunoblot assay utilizing antibodies specific for HCV non-structural proteins, such as NS3, NS4A NS5A and NS5B. In one embodiment of this assay, replicon cells are treated with varying concentrations of test compound to determine the concentration of test compound that yields a 50% reduction in the amount of a non-structural protein produced as compared to a control sample (IC50). A single non-structural protein may be quantified or multiple non-structural proteins may be quantified. Antibodies suitable for carrying out such immunoblot assays are available commercially (e.g., from BIODESIGN International, Saco, Me.).
Certain exemplary compounds of the invention were also tested for their ability to inhibit HCV replication using a quantitative Western blot analysis with antibodies specific for the HCV nonstructural protein NS5A or NS3. Actively dividing 9-13 replicon cells were seeded into 6-well plates at a density of 1×10^5 cells/well in a volume of 2 ml/well and incubated at 37° C. and 5% CO2 for 24 hours. Various concentrations of test compounds (in a volume of 10 ul) were added to the wells and the cells incubated for another 48 hours. […] The membrane was then soaked in substrate solution (Pierce) and exposed to a film or quantified using an imager. […]

Structure (SMILES) | IC50
Clc1cccc(Cl)c1-c1cc(-c2cccc(-c3noc(C(Cl)Cl)n3)c2)on1 [(I) R2=Cl, R6=Cl, 5-Dichloromethyl-3-[3-[3′-(2′,6′-dichlorophenyl)-5′-isoxazolyl]phenyl]-1,2,4-oxadiazole] | ≤ 10 µM
